Measured values reported in PubChem BioAssay (NCI).
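Exposure lasted 48 hours, with cells grown in 96-well plates and compounds tested at five concentrations. TGI: total growth inhibition.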

How the values were obtained:
Assay in all cases: NCI-60 cell line screen, 48 h
[1] = test system: HL-60(TB) leukemia
[2] = test system: NCI-H460 lung
[3] = test system: OVCAR-4 ovarian
[4] = test system: HS 578T breast
[5] = test system: MCF7 breast
[6] = test system: T-47D breast
[7] = test system: DU-145 prostate
[8] = test system: HCT-15 colon
[9] = test system: HCT-116 colon
[10] = test system: A498 renal
[11] = test system: SNB-19 CNS
[12] = test system: COLO 205 colon
[13] = test system: K-562 leukemia
[14] = test system: CCRF-CEM leukemia
[15] = test system: MOLT-4 leukemia
[16] = test system: NCI-H226 lung
[17] = test system: SF-268 CNS
[18] = test system: RXF 393 renal
[19] = test system: SW-620 colon
[20] = test system: LOX IMVI melanoma
[21] = test system: HCC-2998 colon
[22] = test system: M14 melanoma
[23] = test system: UACC-257 melanoma
[24] = test system: MDA-MB-435
[25] = test system: MDA-N
[26] = test system: EKVX NSCLC
[27] = test system: PC-3 prostate
[28] = test system: HOP-92 NSCLC
[29] = test system: UACC-62 melanoma
[30] = test system: MDA-MB-231 breast
[31] = test system: SK-MEL-5 melanoma
[32] = test system: SF-539 CNS
[33] = test system: IGROV1 ovarian
[34] = test system: U251 CNS
[35] = test system: NCI-H522 lung
[36] = test system: KM12 colon
[37] = test system: MALME-3M melanoma
[38] = test system: SR leukemia
[39] = test system: A549 NSCLC
[40] = test system: ACHN renal
[41] = test system: HT29 colon
[42] = test system: SF-295 CNS
[43] = test system: SNB-75 CNS
[44] = test system: CAKI-1 renal
[45] = test system: OVCAR-3 ovarian
[46] = test system: RPMI-8226 leukemia
[47] = test system: OVCAR-8 ovarian
[48] = test system: 786-0 renal
[49] = test system: OVCAR-5 ovarian
[50] = test system: SK-OV-3 ovarian
[51] = test system: SK-MEL-2 melanoma
[52] = test system: SK-MEL-28 melanoma
[53] = test system: NCI-H23 lung
[54] = test system: UO-31 renal
[55] = test system: HOP-62 NSCLC
[56] = test system: SN12C renal
[57] = test system: TK-10 renal
[58] = test system: BT-549 breast
[59] = test system: NCI/ADR-RES ovarian

`O=C1c2ccccc2C(=O)N1CCCSc1ccccc1` was tested, and the TGI [1] was > 100 µM, the TGI [2] was > 100 µM and the TGI [3] was > 100 µM. For the same compound, the TGI [4] was > 100 µM, the TGI [5] was > 100 µM and the TGI [6] was > 100 µM. For the same compound, the TGI [7] was > 100 µM, the TGI [8] was > 100 µM and the TGI [9] was > 100 µM. The TGI [10] was > 100 µM, the TGI [11] was > 100 µM and the TGI [12] was > 100 µM. For the same compound, the TGI [13] was > 100 µM, the TGI [14] was > 100 µM and the TGI [15] was > 100 µM. The TGI [16] was > 100 µM, the TGI [17] was > 100 µM and the TGI [18] was > 100 µM. The TGI [19] was > 100 µM, the TGI [20] was > 100 µM and the TGI [21] was > 100 µM. The TGI [22] was > 100 µM, the TGI [23] was > 100 µM and the TGI [24] was > 100 µM. The TGI [25] was > 100 µM, the TGI [26] was > 100 µM and the TGI [27] was > 100 µM. For the same compound, the TGI [28] was > 100 µM, the TGI [29] was > 100 µM and the TGI [30] was > 100 µM. For the same compound, the TGI [31] was > 100 µM, the TGI [32] was > 100 µM and the TGI [33] was > 100 µM. For the same compound, the TGI [34] was > 100 µM, the TGI [35] was > 100 µM and the TGI [36] was > 100 µM. The TGI [37] was > 100 µM, the TGI [38] was > 100 µM and the TGI [39] was > 100 µM. The TGI [40] was > 100 µM, the TGI [41] was > 100 µM and the TGI [42] was > 100 µM. For the same compound, the TGI [43] was > 100 µM, the TGI [44] was > 100 µM and the TGI [45] was > 100 µM. For the same compound, the TGI [46] was > 100 µM, the TGI [47] was > 100 µM and the TGI [48] was > 100 µM. The TGI [49] was > 100 µM, the TGI [50] was > 100 µM and the TGI [51] was > 100 µM. For the same compound, the TGI [52] was > 100 µM, the TGI [53] was > 100 µM and the TGI [54] was > 100 µM. The TGI [55] was > 100 µM, the TGI [56] was > 100 µM and the TGI [57] was > 100 µM. For the same compound, the TGI [58] was > 100 µM and the TGI [59] was > 100 µM.

For `COC(=O)C(Cc1c[nH]c2ccccc12)N=C1Nc2ccncc2S(=O)(=O)N1c1ccccc1` (stereo not drawn), the TGI [1] was 0.727 µM, the TGI [2] was > 100 µM and the TGI [3] was 75.7 µM. The TGI [4] was > 100 µM, the TGI [5] was > 100 µM and the TGI [6] was 51 µM. For the same compound, the TGI [7] was > 100 µM, the TGI [8] was > 100 µM and the TGI [9] was > 100 µM. The TGI [10] was > 100 µM, the TGI [11] was > 100 µM and the TGI [12] was 33.9 µM. For the same compound, the TGI [13] was 51.8 µM, the TGI [14] was 32.2 µM and the TGI [15] was 35.1 µM. For the same compound, the TGI [16] was 61.4 µM, the TGI [17] was > 100 µM and the TGI [18] was 56.8 µM. It also gave a TGI [19] of 99.3 µM, a TGI [20] of 69.3 µM and a TGI [21] of 60.8 µM. For the same compound, the TGI [22] was > 100 µM, the TGI [23] was > 100 µM and the TGI [24] was 87.3 µM. For the same compound, the TGI [25] was > 100 µM, the TGI [26] was > 100 µM and the TGI [27] was 54 µM. For the same compound, the TGI [28] was 54.8 µM, the TGI [29] was 58.2 µM and the TGI [30] was > 100 µM. For the same compound, the TGI [31] was 30 µM, the TGI [32] was 35 µM and the TGI [33] was 98.7 µM. The TGI [34] was > 100 µM, the TGI [35] was > 100 µM and the TGI [36] was > 100 µM. For the same compound, the TGI [37] was 40.5 µM, the TGI [38] was 42.1 µM and the TGI [39] was > 100 µM. For the same compound, the TGI [40] was > 100 µM, the TGI [41] was 44.9 µM and the TGI [42] was > 100 µM. For the same compound, the TGI [43] was 75 µM, the TGI [44] was > 100 µM and the TGI [45] was 99.5 µM. The TGI [46] was 29.3 µM, the TGI [47] was > 100 µM and the TGI [48] was > 100 µM. For the same compound, the TGI [49] was > 100 µM, the TGI [50] was > 100 µM and the TGI [51] was 68.5 µM. The TGI [52] was > 100 µM, the TGI [53] was > 100 µM and the TGI [54] was > 100 µM. For the same compound, the TGI [55] was > 100 µM, the TGI [56] was > 100 µM and the TGI [57] was > 100 µM. The TGI [58] was > 100 µM and the TGI [59] was > 100 µM.
